# Biological target: T1, human chemokine receptor 2 isoform B (CCR2) (Homo sapiens, UniProt P41597)
# T1 sequence (P41597 1-360 isoform P41597-2): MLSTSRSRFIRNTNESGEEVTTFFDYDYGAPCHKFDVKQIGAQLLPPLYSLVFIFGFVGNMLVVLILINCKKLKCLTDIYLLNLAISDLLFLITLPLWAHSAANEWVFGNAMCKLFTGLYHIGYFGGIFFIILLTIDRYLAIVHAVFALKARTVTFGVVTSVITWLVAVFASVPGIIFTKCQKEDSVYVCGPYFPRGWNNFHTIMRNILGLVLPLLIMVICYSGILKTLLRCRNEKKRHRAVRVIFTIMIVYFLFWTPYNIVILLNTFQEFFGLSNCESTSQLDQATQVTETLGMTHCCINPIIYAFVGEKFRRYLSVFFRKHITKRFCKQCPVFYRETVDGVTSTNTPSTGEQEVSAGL
# Assay: Calcium mobilization assay (FLIPR, MCP-1 stimulated CHOK1-CCR2B-A5 cells)
# Type: cell-based
# Settings: Ca mobilisation assay, CCR2 antagonist activity, inhibition of MCP-1 induced calcium increase
# Procedure: Calcium Mobilization Assay
# CHOK1-CCR2B-A5 cells (from Euroscreen) stably overexpressing the human chemokine receptor 2 isoform B were cultured in Nutrient Hams F12 medium supplemented with 5% FBS, 100 U/ml penicillin, 100 μg/ml streptomycin, 400 μg/ml G418 and 5 μg/ml puromycin.
# For the assay cells were grown overnight in 384-well black clear flat bottom polystyrene plates (Costar) at 37° C. at 5% CO2. After washing with DMEM, 20 mM Hepes, 2.5 mM probenecid, 0.1% BSA (DMEM assay buffer) cells were loaded with 4 μM Fluo-4 in the same DMEM assay buffer for 2 hours at 30° C. Excess dye was removed and cells were washed with DMEM assay buffer. 384-well compound plates were prepared with DMEM assay buffer/0.5% DMSO with or without various concentrations of test compounds. Usually compounds were tested for agonist and antagonist activity.
# Test compounds were added to the assay plate and agonist activity was monitored as fluorescence for 80 seconds with a FLIPR (488 nm excitation; 510-570 nm emission; Molecular Devices). After 20-30 min. of incubation at 30° C., […] MCP-1 (R&D; Roche) was added and fluorescence was monitored again for 80 seconds. Increases in intracellular calcium are reported as maximum fluorescence after agonist exposure minus basal fluorescence before exposure. Antagonist activity is indicated as inhibitor concentration required for 50% inhibition of specific calcium increases.
row,IC50 [nM],SMILES
1,50,"C[C@H]1C(=O)N(CCCN2CCCCC2)CCN1C(=O)Nc1ccc(Cl)c(Cl)c1 [Example 37, (S)-2-Methyl-3-oxo-4-(3-piperidin-1-yl-propyl)-piperazine-1-carboxylic acid (3,4-dichloro-phenyl)-amide]"
2,10,"CC(=O)OC[C@H](CCN1CCC2(CC2)[C@H](O)C1)N1CCN(C(=O)Nc2cccc(Cl)c2)[C@@H](C)C1=O [Example 109, Acetic acid (S)-2-[(S)-4-(3-chloro-phenylcarbamoyl)-3-methyl-2-oxo-piperazin-1-yl]-4-((S)-4-hydroxy-6-aza-spiro[2.5]oct-6-yl)-butyl ester]"
3,9,"COC[C@H](CCN1CCC2(CC2)[C@H](O)C1)N1CCN(C(=O)Nc2cccc(F)c2)[C@@H](C)C1=O [Example 83, (S)-4-[(S)-3-((S)-4-Hydroxy-6-aza-spiro[2.5]oct-6-yl)-1-methoxymethyl-propyl]-2-methyl-3-oxo-piperazine-1-carboxylic acid (3-fluoro-phenyl)-amide]"
4,4,"COc1ccc(C(=O)OC[C@H](CCN2CCC3(CC3)[C@H](O)C2)N2CCN(C(=O)Nc3ccc(Cl)c(Cl)c3)[C@@H](C)C2=O)cc1 [Example 119, 4-Methoxy-benzoic acid (S)-2-[(S)-4-(3,4-dichloro-phenylcarbamoyl)-3-methyl-2-oxo-piperazin-1-yl]-4-((S)-4-hydroxy-6-aza-spiro[2.5]oct-6-yl)-butyl ester]"
5,210,"C[C@H]1C(=O)N(CCCN2CCCCC2)CCN1C(=O)Nc1ccc(-c2ccccc2)cc1 [Example 38, (S)-2-Methyl-3-oxo-4-(3-piperidin-1-yl-propyl)-piperazine-1-carboxylic acid biphenyl-4-ylamide]"
6,9,"COC[C@H](CCN1CCCCC1)N1CCN(C(=O)Nc2ccc(Cl)c(Cl)c2)[C@@H](C)C1=O [Example 81, (S)-4-((S)-1-Methoxymethyl-3-piperidin-1-yl-propyl)-2-methyl-3-oxo-piperazine-1-carboxylic acid (3,4-dichloro-phenyl)-amide]"
7,380,"C[C@@H]1CN(CCCN2CCCCC2)C(=O)CCN1C(=O)Nc1ccc(Cl)c(Cl)c1 [Example 25, (R)-2-Methyl-5-oxo-4-(3-piperidin-1-yl-propyl)-[1,4]diazepane-1-carboxylic acid (3,4-dichloro-phenyl)-amide]"
8,7,"C[C@H]1CCN(CCCN2CCN(C(=O)Nc3ccc(Cl)c(Cl)c3)[C@@H](C)C2=O)C[C@H]1O [Example 47, (S)-4-[3-((3S,4S)-3-Hydroxy-4-methyl-piperidin-1-yl)-propyl]-2-methyl-3-oxo-piperazine-1-carboxylic acid (3,4-dichloro-phenyl)-amide]"
9,580,"C[C@@H]1CN(CCCN2CCCCC2)C(=O)CCN1C(=S)Nc1ccc(Cl)c(Cl)c1 [Example 26, (R)-2-Methyl-5-oxo-4-(3-piperidin-1-yl-propyl)-[1,4]diazepane-1-carbothioic acid (3,4-dichloro-phenyl)-amide]"
10,565,"C[C@H]1C(=O)N(CCCCN2CCC3(CC3)[C@H](O)C2)CCN1C(=O)Nc1cccc(-c2ccncc2)c1 [Example 95, (S)-4-[4-((S)-4-Hydroxy-6-aza-spiro[2.5]oct-6-yl)-butyl]-2-methyl-3-oxo-piperazine-1-carboxylic acid (3-pyridin-4-yl-phenyl)-amide]"
11,2,"COC(=O)OC[C@H](CCN1CCC2(CC2)[C@H](O)C1)N1CCN(C(=O)Nc2ccc(Cl)c(Cl)c2)[C@@H](C)C1=O [Example 112, Carbonic acid (S)-2-[(S)-4-(3,4-dichloro-phenylcarbamoyl)-3-methyl-2-oxo-piperazin-1-yl]-4-((S)-4-hydroxy-6-aza-spiro[2.5]oct-6-yl)-butyl ester methyl ester]"
12,600,"O=C1CCN(C(=S)Nc2ccc(Cl)c(Cl)c2)CCN1CCCN1CCCCC1 [Example 18, 5-Oxo-4-(3-piperidin-1-yl-propyl)-[1,4]diazepane-1-carbothioic acid (3,4-dichloro-phenyl)-amide]"
13,3,"C[C@H]1C(=O)N(CCCN2CCC3(CC3)[C@H](O)C2)CCN1C(=O)Nc1ccc(-c2ccccc2)cc1 [Example 76, (S)-4-[3-((S)-4-Hydroxy-6-aza-spiro[2.5]oct-6-yl)-propyl]-2-methyl-3-oxo-piperazine-1-carboxylic acid biphenyl-4-ylamide]"
14,940,"C[C@H]1C(=O)N(CCCN2CCCCC2)CCN1C(=O)Nc1cccc(Cl)c1 [Example 35, (S)-2-Methyl-3-oxo-4-(3-piperidin-1-yl-propyl)-piperazine-1-carboxylic acid (3-chloro-phenyl)-amide]"
15,50,"COCC(CCN1CCC2(CC2)[C@H](O)C1)N1CCN(C(=O)Nc2cccc(Cl)c2)CCC1=O (stereo partly drawn) [Example 5, (R,S)-4-[3-((S)-4-Hydroxy-6-aza-spiro[2.5]oct-6-yl)-1-methoxymethyl-propyl]-5-oxo-[1,4]diazepane-1-carboxylic acid (3-chloro-phenyl)-amide]"
16,5.1,"CC1CN(C(CO)CCN2CCC3(CC3)[C@H](O)C2)C(=O)CCN1C(=O)Nc1cccc(Cl)c1 (stereo in doubt) [Example 63, (R)-4-[(S)-3-((S)-4-Hydroxy-6-aza-spiro[2.5]oct-6-yl)-1-hydroxymethyl-propyl]-2-methyl-5-oxo-[1,4]diazepane-1-carboxylic acid (3-chloro-phenyl)-amide]"
17,250,"O=C(NCc1ccc(Cl)c(Cl)c1)N1CCC(=O)N([C@H](CO)CCN2CCC3(CC3)[C@H](O)C2)CC1 [Example 51, 4-[(S)-3-((S)-4-hydroxy-6-aza-spiro[2.5]oct-6-yl)-1-hydroxymethyl-propyl]-5-oxo-[1,4]diazepane-1-carboxylic acid 3,4-dichloro-benzylamide]"
18,316,"C[C@H]1C(=O)N(CCCCN2CCC3(CC3)[C@H](O)C2)CCN1C(=O)Nc1cccc(C(F)(F)F)n1 [Example 101, (S)-4-[4-((S)-4-Hydroxy-6-aza-spiro[2.5]oct-6-yl)-butyl]-2-methyl-3-oxo-piperazine-1-carboxylic acid (6-trifluoromethyl-pyridin-2-yl)-amide]"
19,360,"C[C@H]1C(=O)N(CCCN2CCCCC2)CCN1C(=O)Nc1ccc2ccccc2c1 [Example 40, (S)-2-Methyl-3-oxo-4-(3-piperidin-1-yl-propyl)-piperazine-1-carboxylic acid naphthalen-2-ylamide]"
20,2,"C[C@H]1C(=O)N([C@H](CO)CCN2CCC3(CC3)[C@H](O)C2)CCN1C(=O)Nc1cccc(Cl)c1 [Example 107, (S)-4-[(S)-3-((S)-4-Hydroxy-6-aza-spiro[2.5]oct-6-yl)-1-hydroxymethyl-propyl]-2-methyl-3-oxo-piperazine-1-carboxylic acid (3-chloro-phenyl)-amide]"
21,10,"CC(C)C(=O)OC[C@H](CCN1CCC2(CC2)[C@H](O)C1)N1CCN(C(=O)Nc2ccc(Cl)c(Cl)c2)[C@@H](C)C1=O [Example 115, Isobutyric acid (S)-2-[(S)-4-(3,4-dichloro-phenylcarbamoyl)-3-methyl-2-oxo-piperazin-1-yl]-4-((S)-4-hydroxy-6-aza-spiro[2.5]oct-6-yl)-butyl ester]"
22,110,"C[C@H]1C(=O)N(CCCN2CCC3(CC3)[C@H](O)C2)CCN1C(=O)NCc1ccc(Cl)cc1 [Example 77, (S)-4-[3-((S)-4-Hydroxy-6-aza-spiro[2.5]oct-6-yl)-propyl]-2-methyl-3-oxo-piperazine-1-carboxylic acid 4-chloro-benzylamide]"
23,120,"C[C@H]1C(=O)N(CCCN2CCC[C@H]2CO)CCN1C(=O)Nc1ccc(Cl)c(Cl)c1 [Example 50, (S)-4-[3-((S)-2-Hydroxymethyl-pyrrolidin-1-yl)-propyl]-2-methyl-3-oxo-piperazine-1-carboxylic acid (3,4-dichloro-phenyl)-amide]"
24,960,"O=C1CCN(C(=O)Nc2ccc(Cl)c(Cl)c2)[C@H](c2ccccc2)CN1CCCN1CCCCC1 [Example 30, (R)-5-Oxo-2-phenyl-4-(3-piperidin-1-yl-propyl)-[1,4]diazepane-1-carboxylic acid (3,4-dichloro-phenyl)-amide]"
25,5,"COC(=O)OC[C@H](CCN1CCC2(CC2)[C@H](O)C1)N1CCN(C(=O)Nc2cccc(Cl)c2)[C@@H](C)C1=O [Example 110, Carbonic acid (S)-2-[(S)-4-(3-chloro-phenylcarbamoyl)-3-methyl-2-oxo-piperazin-1-yl]-4-((S)-4-hydroxy-6-aza-spiro[2.5]oct-6-yl)-butyl ester methyl ester]"
26,3,"C[C@H]1C(=O)N([C@@H](CCN2CCC3(CC3)[C@H](O)C2)COC(=O)c2ccccc2)CCN1C(=O)Nc1ccc(Cl)c(Cl)c1 [Example 118, Benzoic acid (S)-2-[(S)-4-(3,4-dichloro-phenylcarbamoyl)-3-methyl-2-oxo-piperazin-1-yl]-4-((S)-4-hydroxy-6-aza-spiro[2.5]oct-6-yl)-butyl ester]"
